In the supplement of paper PMC10307832:

Experiments:
Test in all cases: relative viability (nuclei count vs DMSO), 5 days (fraction); higher = more cells survive
[1] = compound: C/C(=N\NC(=S)N1CCC1)/C2=CC=CC=N2 + COc1cc2c(Oc3ccc(NC(=O)C4(C(=O)Nc5ccc(F)cc5)CC4)cc3F)ccnc2cc1OCCCN1CCOCC1 [Foretinib] (partner 0.25 µM)
Summary of the method: (§1)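 Lung cancer cell lines in 1536-well plates were dosed by pin tool the day after seeding, either with one drug alone or with a fixed anchor-drug dose plus five library-drug doses (not always all listed) in √10 steps. After 5 days, cells were fixed and their nuclei stained in one step (final 0.05% Triton X-100, 1% formaldehyde, 1 ug/ml Hoechst), then counted on 4× images. Relative viability is the nuclei count in treated wells divided by that in vehicle wells. Values are medians of duplicate plates.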

[2] = compound: C/C(=N\NC(=S)N1CCC1)/C2=CC=CC=N2 + Cc1nc(NC(=O)N2CCC[C@H]2C(N)=O)sc1-c1ccnc(C(C)(C)C(F)(F)F)c1 [Alpelisib] (partner 2 µM)
Summary of the method: as §1

[3] = compound: C/C(=N\NC(=S)N1CCC1)/C2=CC=CC=N2 + Nc1nc2[nH]cc(CCc3ccc(C(=O)N[C@@H](CCC(=O)O)C(=O)O)cc3)c2c(=O)[nH]1 [Pemetrexed] (partner 0.2 µM)
Summary of the method: as §1

[4] = compound: C/C(=N\NC(=S)N1CCC1)/C2=CC=CC=N2 + O=C(c1cc(Cc2n[nH]c(=O)c3ccccc23)ccc1F)N1CCN(C(=O)C2CC2)CC1 [Olaparib] (partner 8 µM)
Summary of the method: as §1

| Cell Line | relative viability ([1]; first compound 0.05 µM) | relative viability ([1]; first compound 0.1581 µM) | relative viability ([1]; first compound 0.5 µM) | relative viability ([1]; first compound 1.581 µM) | relative viability ([1]; first compound 5 µM) | relative viability ([2]; first compound 0.05 µM) | relative viability ([2]; first compound 0.1581 µM) | relative viability ([2]; first compound 0.5 µM) | relative viability ([2]; first compound 1.581 µM) | relative viability ([2]; first compound 5 µM) | relative viability ([3]; first compound 0.05 µM) | relative viability ([3]; first compound 0.1581 µM) | relative viability ([3]; first compound 0.5 µM) | relative viability ([3]; first compound 1.581 µM) | relative viability ([3]; first compound 5 µM) | relative viability ([4]; first compound 0.05 µM) | relative viability ([4]; first compound 0.1581 µM) | relative viability ([4]; first compound 0.5 µM) | relative viability ([4]; first compound 1.581 µM) | relative viability ([4]; first compound 5 µM) |
| --- | --- | --- | --- | --- | --- | --- | --- | --- | --- | --- | --- | --- | --- | --- | --- | --- | --- | --- | --- | --- |
| NCI-H322M | 0.282 | 0.32 | 0.31 | 0.295 | 0.336 | 0.318 | 0.844 | 0.186 | 0.258 | 0.254 | 0.327 | 0.391 | 0.556 | 0.327 | 0.404 | 0.334 | 0.334 | 0.398 | 0.398 | 0.467 |
| NCI-H2347 | 0.321 | 0.391 | 0.312 | 0.31 | 0.28 | 0.312 | 0.254 | 0.296 | 0.274 | 0.352 | 0.33 | 0.308 | 0.3 | 0.27 | 0.291 | 0.334 | 0.294 | 0.298 | 0.274 | 0.28 |
| NCI-H1975 | 0.137 | 0.143 | 0.129 | 0.124 | 0.124 | 0.137 | 0.137 | 0.123 | 0.136 | 0.154 | 0.133 | 0.144 | 0.141 | 0.155 | 0.145 | 0.111 | 0.113 | 0.118 | 0.111 | 0.133 |
| UMC-11 | 0.249 | 0.212 | 0.223 | 0.183 | 0.185 | 0.235 | 0.182 | 0.153 | 0.117 | 0.126 | 0.221 | 0.169 | 0.159 | 0.141 | 0.138 | 0.163 | 0.122 | 0.137 | 0.131 | 0.106 |
| A-427 | 0.146 | 0.185 | 0.172 | 0.122 | 0.124 | 0.136 | 0.739 | 0.142 | 0.101 | 0.11 | 0.191 | 0.209 | 0.195 | 0.151 | 0.188 | 0.2 | 0.191 | 0.151 | 0.154 | 0.167 |
| LCLC-97TM1 | 0.511 | 0.752 | 0.193 | 0.12 | 0.155 | 0.107 | 0.203 | 0.107 | 0.106 | 0.112 | 0.0782 | 0.0748 | 0.0673 | 0.068 | 0.0595 | 0.0715 | 0.422 | 0.0519 | 0.0494 | 0.0514 |
| HCC-15 | 0.131 | 0.0633 | 0.115 | 0.0865 | 0.0901 | 0.191 | 0.453 | 0.0722 | 0.0749 | 0.0746 | 0.198 | 0.11 | 0.13 | 0.113 | 0.093 | 0.299 | 0.259 | 0.103 | 0.102 | 0.101 |
| NCI-H647 | 0.128 | 0.0812 | 0.172 | 0.132 | 0.105 | 0.135 | 0.0873 | 0.114 | 0.0898 | 0.0916 | 0.136 | 0.111 | 0.114 | 0.0953 | 0.0773 | 0.0792 | 0.0588 | 0.0743 | 0.0667 | 0.0631 |
